Experiments:
in vivo [1] = conditions: Sprague-Dawley, rat, po, 6 mg/kg
Cytochrome P450 2C19 = Cytochrome P450 2C19 (Homo sapiens, UniProt P33261); test: Inhibition of CYP2C19 in human liver microsomes using S-mephenytoin as substrate preincubated for 10 mins in presence of NADPH generating system followed by substrate addition and measured after 20 mins by LC-MS/MS analysis; format: ADME
[2] = Half life in CD1 mouse liver microsomes preincubated for 10 mins under shaking condition followed by NADPH generating system addition and measured up to 60 mins by LC-MS/MS analysis
[3] = Oral bioavailability in Sprague-Dawley rat at 12 mg/kg, IG administered as single dose and measured upto 24 hrs by LC-MS/MS analysis; format: ADME, organism-based; conditions: in vivo
in vivo [4] = conditions: Sprague-Dawley, rat, iv, 2 mg/kg
in vivo [5] = conditions: Sprague-Dawley, rat, po, 12 mg/kg
in vivo [6] = conditions: Sprague-Dawley, rat, plasma, po, 6 mg/kg
[7] = Drug metabolism in Sprague-Dawley rat liver microsomes assessed as 3,3-dideuterio-N-[4-methoxy-2-[methyl-[2-(methylamino)ethyl]amino]-5-[[4-[1-(trideuteriomethyl)indol-3-yl]pyrimidin-2-yl]amino]phenyl]prop-2-enamide metabolite formation preincubated for 10 mins under shaking condition followed by NADPH generating system addition and measured up to 60 mins by LC-MS/MS analysis; format: ADME, Microsome; conditions: 1 h, time <=70 min
[8] = Drug metabolism in cynomolgus monkey liver microsomes assessed as 3,3-dideuterio-N-[4-methoxy-2-(methylamino)-5-[[4-[1-(trideuteriomethyl)indol-3-yl]pyrimidin-2-yl]amino]phenyl]prop-2-enamide metabolite formation preincubated for 10 mins under shaking condition followed by NADPH generating system addition and measured up to 60 mins by LC-MS/MS analysis; format: ADME, Macaca fascicularis, Microsome; conditions: 1 h, time <=70 min
[9] = Half life in Beagle dog liver microsomes preincubated for 10 mins under shaking condition followed by NADPH generating system addition and measured up to 60 mins by LC-MS/MS analysis
in vivo [10] = conditions: Sprague-Dawley, rat, po, 12 mg/kg; remark: listed apart in the source
[11] = Cmax in Sprague-Dawley rat assessed as AZ5104-D2 at 6 mg/kg/day, IG administered for 7 consecutive days by LC-MS/MS analysis; format: ADME, organism-based; set-up: route […], dose 6 mg/kg/day, time 7 day; conditions: in vivo, po, 168 h
[12] = Drug metabolism in Beagle dog liver microsomes assessed as 3,3-dideuterio-N-[2-(2-dimethylaminoethylamino)-4-methoxy-5-[[4-[1-(trideuteriomethyl)indol-3-yl]pyrimidin-2-yl]amino]phenyl]prop-2-enamide metabolite formation preincubated for 10 mins under shaking condition followed by NADPH generating system addition and measured up to 60 mins by LC-MS/MS analysis; format: ADME, Canis lupus familiaris, Microsome; conditions: 1 h, time <=70 min
[13] = Drug metabolism in CD1 mouse liver microsomes assessed as 3,3-dideuterio-N-[4-methoxy-2-(methylamino)-5-[[4-[1-(trideuteriomethyl)indol-3-yl]pyrimidin-2-yl]amino]phenyl]prop-2-enamide metabolite formation preincubated for 10 mins under shaking condition followed by NADPH generating system addition and measured up to 60 mins by LC-MS/MS analysis; format: ADME, Microsome; conditions: 1 h, time <=70 min
[14] = Drug metabolism in cynomolgus monkey liver microsomes assessed as 3,3-dideuterio-N-[4-methoxy-2-[methyl-[2-(methylamino)ethyl]amino]-5-[[4-[1-(trideuteriomethyl)indol-3-yl]pyrimidin-2-yl]amino]phenyl]prop-2-enamide metabolite formation preincubated for 10 mins under shaking condition followed by NADPH generating system addition and measured up to 60 mins by LC-MS/MS analysis; format: ADME, Macaca fascicularis, Microsome; conditions: 1 h, time <=70 min
in vitro = conditions: human, liver microsomes
[15] = Cmax in Sprague-Dawley rat at 2 mg/kg, iv administered as single dose and measured upto 24 hrs by LC-MS/MS analysis; format: ADME, organism-based; set-up: route intravenous, dose 2 mg/kg, time <=24; conditions: in vivo
[16] = Drug metabolism in Beagle dog liver microsomes assessed as 3,3-dideuterio-N-[4-methoxy-2-[methyl-[2-(methylamino)ethyl]amino]-5-[[4-[1-(trideuteriomethyl)indol-3-yl]pyrimidin-2-yl]amino]phenyl]prop-2-enamide metabolite formation preincubated for 10 mins under shaking condition followed by NADPH generating system addition and measured up to 60 mins by LC-MS/MS analysis; format: ADME, Canis lupus familiaris, Microsome; conditions: 1 h, time <=70 min
[17] = Cmax in Sprague-Dawley rat at 2 mg/kg, IG administered as single dose and measured upto 24 hrs by LC-MS/MS analysis; format: ADME, organism-based; set-up: route […], dose 2 mg/kg, time <=24; conditions: in vivo, po
[18] = Intrinsic clearance in human liver microsomes preincubated for 10 mins under shaking condition followed by NADPH generating system addition and measured up to 60 mins by LC-MS/MS analysis; format: ADME, Microsome; conditions: 1 h, time <=70 min
[19] = Cmax in Sprague-Dawley rat at 6 mg/kg/day, IG administered for 7 consecutive days by LC-MS/MS analysis; format: ADME, organism-based; set-up: route […], time 7 day, dose 6 mg/kg/day; conditions: in vivo, po
[20] = Oral bioavailability in Sprague-Dawley rat at 2 mg/kg, IG administered as single dose and measured upto 24 hrs by LC-MS/MS analysis; format: ADME, organism-based; conditions: in vivo
[21] = Half life in Sprague-Dawley rat liver microsomes preincubated for 10 mins under shaking condition followed by NADPH generating system addition and measured up to 20 mins by LC-MS/MS analysis
[22] = Intrinsic clearance in Sprague-Dawley rat liver microsomes preincubated for 10 mins under shaking condition followed by NADPH generating system addition and measured up to 60 mins by LC-MS/MS analysis; format: ADME, Microsome; conditions: 1 h, time <=70 min
[23] = Tmax in Sprague-Dawley rat assessed as AZ5104-D2 at 6 mg/kg/day, IG administered for 7 consecutive days by LC-MS/MS analysis; format: ADME, organism-based; conditions: in vivo, po, 168 h, time 7 day
[24] = Half life in cynomolgus monkey liver microsomes preincubated for 10 mins under shaking condition followed by NADPH generating system addition and measured up to 60 mins by LC-MS/MS analysis
in vivo [25] = conditions: Sprague-Dawley, rat, po, 2 mg/kg
Cytochrome P450 2C9 = Cytochrome P450 2C9 (Homo sapiens, UniProt P11712); test: Inhibition of CYP2C9 in human liver microsomes using diclofenac as substrate preincubated for 10 mins in presence of NADPH generating system followed by substrate addition and measured after 10 mins by LC-MS/MS analysis; format: ADME
Chain of Cytochrome P450 2C9 (P11712 whole entry): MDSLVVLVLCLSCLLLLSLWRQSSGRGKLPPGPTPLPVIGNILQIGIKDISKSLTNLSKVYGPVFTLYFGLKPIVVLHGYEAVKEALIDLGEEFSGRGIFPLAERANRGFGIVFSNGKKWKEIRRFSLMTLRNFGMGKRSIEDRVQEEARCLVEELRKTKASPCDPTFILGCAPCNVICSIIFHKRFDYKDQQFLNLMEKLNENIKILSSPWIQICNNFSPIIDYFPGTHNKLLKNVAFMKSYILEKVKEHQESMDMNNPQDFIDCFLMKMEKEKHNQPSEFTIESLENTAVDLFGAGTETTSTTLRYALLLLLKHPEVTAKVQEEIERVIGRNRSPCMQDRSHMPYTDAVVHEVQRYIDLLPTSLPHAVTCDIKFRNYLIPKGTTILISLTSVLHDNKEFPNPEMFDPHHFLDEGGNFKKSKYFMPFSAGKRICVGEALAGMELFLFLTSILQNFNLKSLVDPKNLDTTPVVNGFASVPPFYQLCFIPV

[26] = Tmax in Sprague-Dawley rat at 12 mg/kg, IG administered as single dose and measured upto 24 hrs by LC-MS/MS analysis; format: ADME, organism-based; conditions: in vivo, po
[27] = Drug metabolism in CD1 mouse liver microsomes assessed as 3,3-dideuterio-N-[4-methoxy-2-[methyl-[2-(methylamino)ethyl]amino]-5-[[4-[1-(trideuteriomethyl)indol-3-yl]pyrimidin-2-yl]amino]phenyl]prop-2-enamide metabolite formation preincubated for 10 mins under shaking condition followed by NADPH generating system addition and measured up to 60 mins by LC-MS/MS analysis; format: ADME, Microsome; conditions: 1 h, time <=70 min
[28] = Tmax in Sprague-Dawley rat at 2 mg/kg, IG administered as single dose and measured upto 24 hrs by LC-MS/MS analysis; format: ADME, organism-based; conditions: in vivo, po
[29] = Cmax in Sprague-Dawley rat at 6 mg/kg/day, IG and measured on day 7 by LC-MS/MS analysis; format: ADME, organism-based; set-up: route […], dose 6 mg/kg/day, time 7 day; conditions: in vivo, po

Chain of Cytochrome P450 2C19 (P33261 whole entry): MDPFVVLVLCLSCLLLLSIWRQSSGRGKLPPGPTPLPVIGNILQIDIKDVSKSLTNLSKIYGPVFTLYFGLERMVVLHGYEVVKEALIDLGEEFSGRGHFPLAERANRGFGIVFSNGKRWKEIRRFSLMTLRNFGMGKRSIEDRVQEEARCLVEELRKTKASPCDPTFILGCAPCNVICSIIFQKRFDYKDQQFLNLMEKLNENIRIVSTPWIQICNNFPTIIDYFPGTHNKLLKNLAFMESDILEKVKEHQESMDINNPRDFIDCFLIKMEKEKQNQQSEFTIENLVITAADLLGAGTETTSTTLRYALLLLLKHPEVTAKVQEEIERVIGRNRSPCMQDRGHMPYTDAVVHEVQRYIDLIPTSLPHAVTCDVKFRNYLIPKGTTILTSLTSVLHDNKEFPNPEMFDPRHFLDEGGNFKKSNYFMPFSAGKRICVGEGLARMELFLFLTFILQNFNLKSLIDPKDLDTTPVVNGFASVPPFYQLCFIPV

Question: With `CS(=O)(=O)O.[2H]C([2H])=CC(=O)Nc1cc(Nc2nccc(-c3cn(C([2H])([2H])[2H])c4ccccc34)n2)c(OC)cc1N(C)CCN(C)C` as the compound, how does the CL/F at 168 h (in vivo [1]) read?
Answer: Its CL/F at 168 h is 325 mL/min/kg.

Question: What about the IC50 (Cytochrome P450 2C19) of the same compound?
Answer: Its IC50 is 43 µM.

Question: And the half-life at 1 h [2]?
Answer: Its half-life at 1 h is 0.395 h.

Question: What about the bioavailability [3] of the same compound?
Answer: The bioavailability was 43%.

Question: And the half-life at 24 h (in vivo [4])?
Answer: Its half-life at 24 h is 5.4 h.

Question: And the CL/F at 24 h (in vivo [5])?
Answer: The CL/F at 24 h was 248 mL/min/kg.

Question: What about the half-life at 168 h (in vivo [6]) of the same compound?
Answer: The half-life at 168 h was 3.27 h.

Question: What about the Drug metabolism [7] of the same compound?
Answer: Its Drug metabolism is “Metabolite_Detected”.

Question: What about the Drug metabolism [8] of the same compound?
Answer: Its Drug metabolism is “Metabolite_Detected”.

Question: What about the half-life at 1 h [9] of the same compound?
Answer: The half-life at 1 h was 0.377 h.

Question: What about the half-life at 24 h (in vivo [10]) of the same compound?
Answer: The half-life at 24 h was 4.04 h.

Question: And the Cmax [11]?
Answer: Its Cmax is 0.395 nM.

Question: What about the Drug metabolism [12] of the same compound?
Answer: The Drug metabolism was “Metabolite_Detected”.

Question: What about the Drug metabolism [13] of the same compound?
Answer: Its Drug metabolism is “Metabolite_Detected”.

Question: What about the Drug metabolism [14] of the same compound?
Answer: The Drug metabolism was “Metabolite_Detected”.

Question: And the half-life at 1 h (in vitro)?
Answer: Its half-life at 1 h is 2.4 h.

Question: And the Cmax [15]?
Answer: Its Cmax is 277 nM.

Question: And the Drug metabolism [16]?
Answer: Its Drug metabolism is “Metabolite_Detected”.

Question: And the Cmax [17]?
Answer: The Cmax was 46.7 nM.

Question: What about the CLint [18] of the same compound?
Answer: The CLint was 9.6 µL/min/mg.

Question: And the Cmax [19]?
Answer: Its Cmax is 113 nM.

Question: And the bioavailability [20]?
Answer: The bioavailability was 41.2%.

Question: And the half-life at 20 min [21]?
Answer: Its half-life at 20 min is 0.577 h.

Question: And the CLint [22]?
Answer: Its CLint is 40 µL/min/mg.

Question: What about the Tmax [23] of the same compound?
Answer: The Tmax was 6.8 h.

Question: And the half-life at 1 h [24]?
Answer: Its half-life at 1 h is 0.427 h.

Question: And the half-life at 24 h (in vivo [25])?
Answer: Its half-life at 24 h is 3.76 h.

Question: What about the IC50 (Cytochrome P450 2C9) of the same compound?
Answer: The IC50 was greater than 50 µM.

Question: And the Tmax [26]?
Answer: The Tmax was 5 h.

Question: And the Drug metabolism [27]?
Answer: The Drug metabolism was “Metabolite_Detected”.

Question: And the Tmax [28]?
Answer: The Tmax was 4.17 h.

Question: And the Cmax [29]?
Answer: The Cmax was 180 nM.

— ChEMBL document CHEMBL4732150 (J Med Chem, 2021)
